Data published in patent US8273748B2, “Amino alcohol derivative and immunosuppresive agent having same as an active ingredient” (Kyorin Pharmaceutical Co., Ltd., priority 2006, dated 2012).

How the values were obtained:
Format in all cases: in vivo
[1] = Effect on rat lung weight; settings: Wistar rats, lungs extracted 6 hours later
Experimental: Crlj:Wistar rats (male) 5 to 8 weeks old were used in the experiment. An aqueous solution of the test compounds was respectively orally administered in an amount of 0.5 mL per 100 g of rat body weight. The lungs were extracted 6 hours later, and the lung weight was measured.

[2] = test system: mouse host-versus-graft rejection reaction; experiment: Inhibition activity on mouse host-versus-graft rejection reaction (popliteal lymph node weight); settings: ip, inhibition of popliteal lymph node weight increase, C3H/HeN mice, intraperitoneal once per day, 4 times
Experimental: Experiment example 2 was carried out by referring to the methods described in Transplantation, Vol. 55, No. 3, pp. 578 to 591, 1993. The spleens from BALB/c male mice which were6 to 23 weeks old (Japan SLC) were collected. The spleens were extracted in RPMI-1640 medium (Sigma), and then turned into a spleen cell suspension by grinding them with 2 glass slides and then passing the ground matter through a strainer (70 microns, Falcon). The spleen cell suspensions were centrifuged, and the supernatants were removed. Then, an ammonium chloride-tris isotonic buffer solution was added, and the red blood cells were hemolyzed. After centrifuging and washing 3 times with RPMI-1640 medium, the cells were suspended in RPMI-1640 medium. Mitomycin C (Kyowa Hakko) was added thereto so that the final concentration was 25 μg/mL, and the cells were incubated for 30 minutes at 37° C. under 5% CO2. After centrifuging and washing 3 times with RPMI-1640 medium, the cells were suspended in RPMI-1640 medium so that the concentration was 2.5×10^8 cells/mL. These cells were used as a stimulator cell suspension. 20 μL (5×10^6 cells/mouse) of the stimulator cell suspension was injected subcutaneously into the right hind-foodpad of C3H/HeN male mice which were6 to 11 weeks old (Clea Japan) using a 27G needle and a microsyringe (Hamilton). For the normal control group, RPMI-1640 medium only was injected. After 4 days, the right popliteal lymph nodes were extracted, and their weight was measured using Mettler AT201 electronic scales (Mettler Toledo). From the day of the stimulator cell suspensions being injected to 3 days thereafter, the test compounds were intraperitoneally administered on consecutive days once per day, for a total of 4 times. For the control group, only a solvent having the same composition as that used in the preparation of the test compounds was administered in the same manner. As the solvent, basically a physiological saline containing 0.5% DMSO was used (suitably adjusted according to the solubility of the compound). The inhibition ratio was calculated using the following equation. [formula]

[3] = test system: white blood cells in mouse peripheral blood; experiment: Activity on total number of white blood cells in mouse peripheral blood; settings: BALB/c mice, blood collected 6 hours after administration
Experimental: The test compounds were dissolved or suspended in DMSO, and then a physiological saline solution was added to make dosing solutions (DMSO final concentration 1%). If the dosing solutions were not in a dissolved or a uniform suspended state, Tween 80 was added so that the final concentration thereof was 0.01 to 0.1%. The resultant solutions were then sonicated to form a fine suspension. These test compound solutions were intraperitoneally administered in respective amounts of 0.1 mL or 0.2 mL per 10 g of body weight to BALB/cCrSlc male mice (8 to 14 weeks old, Japan SLC). For the control group, only a solvent having the same composition as that used in the preparation of the test compounds was administered in the same manner. Six hours after administration of the test compound solutions, blood was collected from the postcava under ether anesthesia (10 μL of 10% EDTA was added as an anticoagulant). Measurement of the total number of white blood cells was carried out using the automated blood cell counting apparatus Sysmex F-820 (Sysmex). Here, compounds having an inhibition ratio of 60% or more were marked as “+++”, compounds having an inhibition ratio of less than 60% but more than or equal to 50% were marked as “++”, and compounds having an inhibition ratio of less than 50% but more than or equal to 40% were marked as “+”. Furthermore, the inhibition ratios are the results from a dose of 0.3 mg/kg (“[ ]” are the results from 3 mg/kg).

[4] = test system: allogenic skin graft for rats; experiment: Rat skin graft model (allogenic skin graft survival); settings: for MST: oral administration once a day
Experimental: Using a rat skin graft model, activity on the rejection reaction was investigated.
Skin from the abdomen of a LEW/CrlCrlj rat serving as the donor (male, 5 weeks old, Japan Charles River) was peeled away, and the panniculus carnosus muscule layer under the skin was removed. Then, a 1.8 cm×1.8 cm skin specimen (graft) was prepared. Next, a F344/DuCrlCrlj rat serving as the recipient (male, 5 weeks old, Japan Charles River) was anesthetized by intraperitoneal administration of 40 mg/kg of sodium pentobarbital (nembutal injection, Dainippon Sumitomo Pharma). The hair of the back of the rat was shorn off by electric clippers, and then the remaining hair was further shaved off using a razor. Then, a 1.8 cm×1.8 cm mark was made on the back of the rat, and a shallow cut was made along the mark with a scalpel. Next, the skin was peeled away along this cut by tweezers to produce a graft bed. Several drops of sterile physiological saline solution (Otsuka normal saline, Otsuka Pharmaceutical) were dropped onto the graft bed, and then wiped away with gauze. Several drops of penicillin (crystalline penicillin GpotassiumMeiji, Meiji Seika) were then dropped thereon. Next, the graft was placed on the graft bed. After absorbing excess moisture with sterile gauze, a first-aid bandaid was stuck over the graft. Furthermore, an adhesive bandage was wrapped around the trunk of the rat. On the third day after the operation, a new adhesive bandage was wrapped thereover. On the fifth day after the operation, the bandaid and the bandages were cut open with scissors and removed. Observation of the graft was carried out on consecutive days from when the bandaid was removed (from the fifth day). A determination of graft rejection was made when 90% or more of the graft had died and tuned brown. The number of days from grafting until rejection was confirmed was taken as the survival period. The mean value of the survival period for each group was calculated as the mean survival time (MST). Investigation was carried out with 5 animals per group. All of the rats were housed in individual cages. The test compounds were dissolved in ultra-pure water, and were orally administered once a day, on consecutive days, from the graft day. For the control group, ultra-pure water was administered in the same manner.

[5] = dose 3 mg/kg (values in [ ]) intraperitoneal

Structure (SMILES) | ED50 [2] [mg/kg] | Inhibition Ratio ([3]; dose 0.3 mg/kg intraperitoneal) | further results
C[C@](N)(CO)CCCc1ccc(Oc2cccc(C(F)(F)F)c2)cc1Cl.Cl [Example 26, (R)-2-amino-5-[2-chloro-4-(3-trifluoromethylphenoxy)phenyl]-2-methylpentan-1-ol hydrochloride] | 0.1 to 1 |  | Effect on lung weight ([1]; up to a dose of 30 mg/kg oral): no effects whatsoever on lung weight; Inhibition Ratio [3, 5]: [+] (inhibition ratio of less than 50% but more than or equal to 40%)
C[C@](N)(CO)CCCc1ccc(Sc2cccc(C(F)(F)F)c2)cc1F.Cl [Example 35, (R)-2-amino-5-[2-fluoro-4-(3-trifluoromethylphenylthio)phenyl]-2-methylpentan-1-ol hydrochloride] | 0.1 to 1 |  | 
C[C@](N)(CO)CCc1ccc(Sc2cccc(C(F)(F)F)c2)cc1Cl.Cl [Example 29, (R)-2-amino-4-[2-chloro-4-(3-trifluoromethylphenylthio)phenyl]-2-methylbutan-1-ol hydrochloride] | 0.1 to 1 | +++ (inhibition ratio of 60% or more) | 
CCC[C@](N)(CO)CCCc1ccc(Sc2cccc(C(F)(F)F)c2)cc1Cl.Cl [Example 36, (R)-2-amino-5-[2-chloro-4-(3-trifluoromethylphenylthio)phenyl]-2-propylpentan-1-ol hydrochloride] | 0.1 to 1 |  | Inhibition Ratio [3, 5]: [++] (inhibition ratio of less than 60% but more than or equal to 50%)
C[C@](N)(CO)CCc1ccc(Oc2cccc(C(F)(F)F)c2)cc1Cl.Cl [Example 28, (R)-2-amino-4-[2-chloro-4-(3-trifluoromethylphenoxy)phenyl]-2-methylbutan-1-ol hydrochloride] | 1 to 10 | ++ (inhibition ratio of less than 60% but more than or equal to 50%) | 
CCc1cccc(Sc2ccc(CCC[C@@](C)(N)CO)c(Cl)c2)c1.Cl [Example 32, (R)-2-amino-5-[2-chloro-4-(3-ethylphenylthio)phenyl]-2-methylpentan-1-ol hydrochloride] | 0.1 to 1 |  | 
C[C@](N)(CO)CCCc1ccc(Sc2cccc(C(F)(F)F)c2)cc1Cl.Cl [Example 27, (R)-2-amino-5-[2-chloro-4-(3-trifluoromethylphenylthio)phenyl]-2-methylpentan-1-ol hydrochloride] | < 0.1 | + (inhibition ratio of less than 50% but more than or equal to 40%) | Effect on lung weight ([1]; up to a dose of 100 mg/kg oral): no effects whatsoever on lung weight; MST ([4]; 3 mg/kg): 11.8 days; MST ([4]; 10 mg/kg): 14 days; MST ([4]; 30 mg/kg): 20.4< days; Survival period extension effect of the graft ([4]; individual administration, oral): survival period extension effect of the graft was found
